In patent US10927375B1, “Compositions and methods to reduce beta-agonist-mediated tachyphylaxis” (University of South Florida, priority 2018, dated 2021):
“Also recorded” adds a separate entry of the source.

Columns and labels:
[1] = system: let-7f miRNA expression in HASM cells; assay: let-7f miRNA expression in cultured HASM cells by quantitative RT-PCR; type: cell-based, human; details: for change in let-7f miRNA expression after treatment with the agent: 18 h at 37° C., asthmatic and nonasthmatic HASM cells, ISO 30 μM, forskolin 10 mM, dibutyryl-cAMP 100 mM as printed
ADRB2 mRNA = ADRB2 mRNA in D9 HASM cells by RT-PCR; details: 18 h ISO
Method: (§1) The immortalized HASM cell line denoted D9 hTERT was developed as described (22), and was grown in the same manner. […] In some experiments, pretreatment with 10 μM N-(2-[p-bromocinnamylamino]ethyl)-5-isoquinoline-sulfonamide (H89) occurred for 1 h prior to the aforementioned treatments.
RT-PCR was performed using a LightCycler 96 system (Roche, Basel, Switzerland) and TaqMan polymerase (Applied Biosystems, Foster City, Calif., USA) as previously described (26, 27). The RT reactions utilized Oligo d(T)16 for ADRB2 and glyceraldehyde-3 phosphate dehydrogenase (control), and the primers included with the TaqMan MicroRNA assay (Applied Biosystems) for the reaction with let-7f and U6 snRNA (control). […] Quantitation of transcripts was made by the 22DCt method (28, 29).

β2AR [2] = details: incubating cells with dibutyryl-cAMP and forskolin (ref. 37); cited from earlier work
β2AR [3] = details: stably transfected HEK 293 cells greatly overexpressing β2ARs (ref. 40); cited from earlier work
β2AR [4] = molecular target: β2AR (Homo sapiens, UniProt P07550); assay: β2AR protein expression / agonist-promoted down-regulation in HASM cells (Western blot, radioligand binding)
Method: as §1
HASM cells in 6-well plates were transfected using Lipofectamine 2000 (Thermo Fisher Scientific, Waltham, Mass., USA) as described in detail elsewhere (22, 23). Cells were in a final volume of 1.0 ml and the indicated constructs along with 10 ml of Lipofectamine 2000 were added to initiate the transfection. The constructs and final concentrations were: cAMP receptor element-binding protein [CREB (in pcDNA3, 4 μg/ml)], siCREB (40 nM of siGenome SmartPool; Dharmacon, Lafayette, Colo., USA), and to inhibit let-7f, a competitive inhibitor (Dharmacon) that binds to let-7f (24, 25) at a final concentration of 40 nM (24, 25). The cells were studied 48 h after transfection. […] Secondary antibody for chemoluminescence (Thermo Fisher Scientific) was at a titer of 1:10,000. ChemiDoc (Bio-Rad, Hercules, Calif., USA) was used to detect bands, which were quantitated using ImageJ (National Institutes of Health, Bethesda, Md., USA).
Radioligand binding. Confluent cells in 10 cm dishes were washed 3 times with cold PBS followed by disruption with a cell scraper in buffer consisting of 5 mM Tris and 2 mM EDTA at 4° C. (pH 7.4). Crude membranes were collected by centrifugation at 30,000 g for 15 min at 4° C., and resuspended in assay buffer consisting of 75 mM Tris, 12 mM MgCl2, and 5 mM EDTA at 25° C. (pH 7.4). […] After incubation for 1.5 h at 25° C., bound radioligands were separated from free radioligands by rapid dilution and vacuum filtration with buffer containing 15 ml of 5 mM Tris and 2 mM EDTA at 25° C. (pH 7.4) over Whatman GF/C filters (GE Healthcare Bio-Sciences, Piscataway, N.J., USA) using a Brandel cell harvester (Brandel, Gaithersberg, Md., USA). Specific binding was divided by the added cell membrane protein and β2AR expression stated as femtomoles per milligram.

Molecule: O=S(=O)(NCCNCC=Cc1ccc(Br)cc1)c1cccc2cnccc12 [H89]
- effect of H89 on ISO-promoted increase in let-7f ([1]; 10 μM H89 pretreatment 1 h, then ISO 18 h, asthmatic and non-asthmatic HASM cells): blocked; also recorded: inhibited
- effect of H89 on forskolin-promoted increase in let-7f ([1]; 10 μM H89 pretreatment 1 h, then forskolin 18 h, asthmatic and non-asthmatic HASM cells): blocked; also recorded: inhibited
- effect of H89 on dibutyryl-cAMP-promoted increase in let-7f ([1]; 10 μM H89 pretreatment, then dibutyryl-cAMP 18 h, HASM cells): blocked

Molecule: CC(C)NCC(O)c1ccc(O)c(O)c1 (centres unmarked) [ISO, isoproterenol]
- change in let-7f miRNA expression after treatment with the agent [1]: increased
- increase in let-7f miRNA expression ([1]; 18 h exposure to ISO (30 μM), both asthmatic and non-asthmatic HASM cells): ~3 fold
- change in ADRB2 mRNA due to ISO exposure (ADRB2 mRNA): not altered; also recorded: not found to be changed

Molecule: CCCC(=O)Nc1ncnc2c1ncn2[C@@H]1O[C@@H]2COP(=O)(O)O[C@H]2[C@H]1OC(=O)CCC [dibutyryl-cAMP]
- change in let-7f miRNA expression after treatment with the agent [1]: increased
- β2AR down-regulation relative to β-agonists (β2AR [2]): nearly the same extent
- degree of β2AR down-regulation compared with that of ISO (β2AR [3]): relatively small degree

B1: let-7f inhibitor: competitive inhibitor (Dharmacon) that binds to let-7f; Cat. No. IH-30048-07, SEQ ID NO: 14 (nucleic acid)
chain: UCAGAGUGAGGUAGUAGAUUGUAUAGUUGUGGGGUAGUGAUUUUACCCUGUUCAGGAGAUAACUAUACAAUCUAUUGCCUUCCCUGA
modifications: commercial inhibitor, chemistry not given here
- attenuation of agonist-promoted β2AR down-regulation (β2AR [4]; let-7f or CREB silenced, chronic agonist): about 50%
- effect on ISO-promoted β2AR down-regulation (β2AR [4]; transfection 40 nM 48 h, then ISO 18 h): attenuates; also recorded: markedly attenuated
